Laboratory results published in PubChem BioAssay AID179 (DTP/NCI, 2004).
Several values for one entry are separate records, joined by “and”; a condition that tells them apart may be missing. Equal entries are not always repeated. Activity calls are given as the source filed them.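 Rule for the calls: active = compounds giving half or more protection of infected cells from virus-caused growth loss, again on retest; inactive = the rest.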

System: CEM cells HIV-1 protection, formazan growth assay
Experiment: NCI AIDS Antiviral Assay
Conditions: for IC50: measured here: growth of uninfected CEM cells
In short: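 Protection of CEM cells against HIV-1 measured as cell growth via soluble formazan read-out, with five concentrations tested on both infected and uninfected cells; failure to protect may reflect toxicity.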

With CC1=C(C(=O)N[C@@H](CC(C)C)C(=O)O)N2C(=O)[C@@H](NC(=O)[C@@H](N)Cc3ccccc3)[C@H]2SC1 as the molecule, how does the EC50 read?
The EC50 was > 200 µM.

What about the IC50 of the same molecule?
Its IC50 is 85.1 µM.

Which results are given for C[Si](C)(C)C1=C([Si](C)(C)C)C(Cl)(Cl)C1=O?
EC50: > 20 µM; IC50: 3.98 µM

Which results are given for COc1c(O)c2ccccc2c2cc(O)ccc12?
EC50: > 1050 µM; IC50: 5.25 µM

With O=[N+]([O-])c1ccc(-c2nc3c(o2)CCC3)cc1 as the molecule, how does the EC50 read?
Its EC50 is > 200 µM.

And the IC50?
The IC50 was 195 µM.

Which EC50 does the source give for CC(=O)OCc1c(O)c2c([nH]c1=O)CCc1ccccc1-2 here?
Its EC50 is > 25.1 µM.

What about the IC50 of the same molecule?
The IC50 was > 25.1 µM.

For CCc1cccc(C(C)C)c1NC(=O)C(=O)CC(=O)c1c(C)n([O-])c2ccccc2[n+]1=O, which EC50 is on record?
Its EC50 is > 3.31 µM.

What about the IC50 of the same molecule?
Its IC50 is > 3.31 µM.

For CC(CO)NNC(C)CO (stereo unspecified), which EC50 is on record?
Its EC50 is > 200 µM.

And the IC50?
Its IC50 is > 200 µM.

CCOC(=O)c1c(NS(=O)(=O)c2ccc(C)cc2)sc2c1CCCC2 was tested. Which EC50 did it give?
Its EC50 is > 200 µM.

And the IC50?
Its IC50 is 25.1 µM.

Which results are given for C=C1C(=O)O[C@H]2C/C(C=O)=C\[C@H]3O[C@H]3/C(COC(=O)C(C)C)=C/CC12 (stereo partly specified)?
EC50: > 200 µM; IC50: 1.62 µM

How did the EC50 turn out when CC1=Nc2ccccc2NC(C)(C)C1 was run?
Its EC50 is > 955 µM.

And the IC50?
The IC50 was 56.2 µM and 37.2 µM and > 200 µM.

How did the EC50 turn out when COc1ccc(/C=N/NC(=O)c2cnc3[nH]c(=O)n(C)c(=O)c3c2)cc1 was run?
The EC50 was > 200 µM.

And the IC50?
Its IC50 is > 200 µM.

For Cc1cc(N=Nc2ccc(Sc3ccc(N=Nc4ccc(O)c(C(=O)O)c4)cc3)cc2)c(N)c(N=Nc2ccc(C(=O)O)cc2)c1N, which EC50 is on record?
The EC50 was > 200 µM.

And the IC50?
The IC50 was 27.5 µM.

What does the source list for O=C(OCCSSCCOC(=O)c1ccc([N+](=O)[O-])cc1)c1ccc([N+](=O)[O-])cc1?
EC50: > 200 µM; IC50: 12 µM

O=C1CSC(/C=C/c2ccccc2)N1c1ccc(-n2c(-c3ccccc3)nc3ccccc3c2=O)cc1 (stereo unspecified) was tested. Which EC50 did it give?
The EC50 was > 200 µM.

What about the IC50 of the same molecule?
The IC50 was 105 µM.

Which results are given for Cc1cc2c(cc1C)[n+](=O)c(C(=O)C/C(=N/NC(=O)c1ccccc1O)C(=O)Nc1ccccc1C(C)C)c(C)n2[O-]?
EC50: > 229 µM; IC50: 75.9 µM

For CCOC(=O)c1[nH]n(-c2ccccc2)c(=O)c1/C=N/C(=S)Nc1ccc(Cl)cc1Cl, which EC50 is on record?
The EC50 was > 200 µM.

And the IC50?
The IC50 was > 200 µM.

For COC1(OC)C=NNc2nccn21, which EC50 is on record?
Its EC50 is > 200 µM.

What about the IC50 of the same molecule?
The IC50 was > 200 µM.

With COC(C/C(=C/CO[Si](C(C)C)(C(C)C)C(C)C)C(=O)Nc1ccccc1I)OC as the molecule, how does the EC50 read?
Its EC50 is > 200 µM.

What about the IC50 of the same molecule?
The IC50 was 40.7 µM.

For Fc1ccccc1C1SCc2nc3ncccc3n21 (stereo unspecified), which EC50 is on record?
Its EC50 is > 95.5 µM.

What about the IC50 of the same molecule?
The IC50 was > 95.5 µM.

Which EC50 does the source give for CCCCN(CCCC)C(=N)OC here?
Its EC50 is > 200 µM.

What about the IC50 of the same molecule?
Its IC50 is 70.8 µM.

How did the EC50 turn out when COC(=O)/C(C#N)=C(\N)c1c(C)c2ccccc2oc1=N was run?
Its EC50 is > 200 µM.

What about the IC50 of the same molecule?
The IC50 was > 200 µM.

Which EC50 does the source give for O=C1c2cc([N+](=O)[O-])ccc2-c2c(S)cccc21 here?
Its EC50 is > 200 µM.

And the IC50?
The IC50 was 50.1 µM.

Which outcome does the source give for CCOCCOC(=O)C1CCC(=O)N1CN(C(C)=O)c1cc(OC)ccc1OC (stereo unspecified) here?
Its outcome is “inactive”.

For CC(C)(C)C1=CC(=C(c2ccc(-c3c4nc(c(-c5ccc(C(=C6C=C(C(C)(C)C)C(=O)C(C(C)(C)C)=C6)c6cc(C(C)(C)C)c(O)c(C(C)(C)C)c6)cc5)c5ccc([nH]5)c(-c5ccc(C(=C6C=C(C(C)(C)C)C(=O)C(C(C)(C)C)=C6)c6cc(C(C)(C)C)c(O)c(C(C)(C)C)c6)cc5)c5nc(c(-c6ccc(C(=C7C=C(C(C)(C)C)C(=O)C(C(C)(C)C)=C7)c7cc(C(C)(C)C)c(O)c(C(C)(C)C)c7)cc6)c6ccc3[nH]6)C=C5)C=C4)cc2)c2cc(C(C)(C)C)c(O)c(C(C)(C)C)c2)C=C(C(C)(C)C)C1=O, which EC50 is on record?
The EC50 was > 100 µM.

And the IC50?
Its IC50 is > 100 µM.

Which EC50 does the source give for COc1ccc(C)[n+]([O-])n1 here?
Its EC50 is > 200 µM.

What about the IC50 of the same molecule?
Its IC50 is > 200 µM.

For CCCCCCCCCCCCCCCCCCNC(=S)/N=C/c1c(O)c2ccccc2[nH]c1=O, which EC50 is on record?
Its EC50 is > 200 µM.

What about the IC50 of the same molecule?
The IC50 was 44.7 µM.

For CS(=O)(=O)OCCNC[C@@H](O)[C@@H](O)CNCCOS(C)(=O)=O, which EC50 is on record?
The EC50 was > 692 µM.

And the IC50?
The IC50 was 1.38 µM.

COc1ccccc1/C=C/C(=O)c1sc(-c2cccnc2)nc1C was tested. Which EC50 did it give?
The EC50 was > 15.5 µM.

What about the IC50 of the same molecule?
Its IC50 is > 15.5 µM.

Which results are given for CCOC(=O)CNc1nnnn1C1OC(CO)C(O)C1O (stereo unspecified)?
EC50: > 832 µM; IC50: > 832 µM

What does the source list for O=C1C=C(N2CCCC2)C=C(N2CCCC2)C1?
EC50: > 155 µM; IC50: 81.3 µM

For COC(=O)CC1(C(=O)OC)C2CCCN2C2(C#N)c3ccccc3CCC12Br (stereo unspecified), which EC50 is on record?
The EC50 was > 41.7 µM.

And the IC50?
The IC50 was > 41.7 µM.

With NC(=S)NN=C(C1CC1)C1CC1 as the molecule, how does the EC50 read?
Its EC50 is > 200 µM.

What about the IC50 of the same molecule?
Its IC50 is > 200 µM.

Which EC50 does the source give for O=C1NN=C(c2ccc(Cl)cc2)CC1C1C(=O)N(c2ccccc2)N=C1c1ccccc1 (stereo unspecified) here?
The EC50 was > 100 µM.

What about the IC50 of the same molecule?
The IC50 was 49 µM.

Which EC50 does the source give for CCC[CH2][Sn]([CH2]CCC)([S]CCS(=O)(=O)O)[S]CCS(=O)(=O)O here?
The EC50 was > 200 µM.

And the IC50?
The IC50 was 115 µM.

With COc1cccc2c1C(=O)c1c(O)c3c(c(O)c1C2=O)C[C@@](O)(/C(C)=N\O)C[C@@H]3OC1CC(N)C(O)C(C)O1 (stereo partly specified) as the molecule, how does the EC50 read?
Its EC50 is > 0.2 µM.

What about the IC50 of the same molecule?
Its IC50 is 0.0646 µM.

COc1ccc(C(=C2C=CC=C2)c2ccc(OC)cc2)cc1 was tested. Which EC50 did it give?
The EC50 was > 200 µM.

What about the IC50 of the same molecule?
Its IC50 is 52.5 µM.

O=C(Cc1ccccc1)NNc1nc(NNC(=O)c2ccncc2)nc(Nc2ccc(Cl)cc2)n1 was tested. Which EC50 did it give?
The EC50 was > 100 µM.

And the IC50?
The IC50 was > 100 µM.

What does the source list for CC1(C)CC(=O)C2=C(C1)OC1=C(CC(C)(C)CC1=O)C2c1ccccc1Cl (stereo unspecified)?
EC50: > 200 µM; IC50: 162 µM

Which outcome does the source give for O=C(O)Cc1cc(=O)[nH]c2c1C(=O)CCC2 here?
Its outcome is “inactive”.

How did the EC50 turn out when Clc1ccc(CN2COc3c(ccc4ccccc34)C2)cc1Cl was run?
Its EC50 is > 200 µM.

What about the IC50 of the same molecule?
Its IC50 is 31.6 µM.

For COc1ccc(C2Oc3c(c(O)cc4c3[C@H](c3ccc(O)cc3O)[C@H](O)C(c3ccc(O)c(O)c3)O4)C[C@@H]2O)cc1O (stereo partly specified), which outcome is on record?
The outcome was “inactive”.

With O=C1CN(/C=C(/c2ccc(Cl)cc2)S(=O)(=O)Cc2ccc(Cl)cc2)C(=S)N1 as the molecule, how does the EC50 read?
The EC50 was > 200 µM.

What about the IC50 of the same molecule?
Its IC50 is > 200 µM.

CN(c1ccccc1)c1nc(=[N+](C)C)ss1 was tested. Which outcome did it give?
Its outcome is “inactive”.

Which results are given for CCOC(=O)c1cc(Br)c(-c2onc(C)c2Br)[nH]1?
EC50: > 200 µM; IC50: > 200 µM

With CCCCCCCCCCCCCCCC(=O)OCC1OC(OC)C2NP(=O)(N(CCCl)CCCl)OC1C2O (stereo unspecified) as the molecule, how does the EC50 read?
The EC50 was > 8.51 µM.

And the IC50?
The IC50 was 0.155 µM.

What does the source list for N#CCc1ccc(C(C#N)/C(CCCC(=O)Nc2cccc([N+](=O)[O-])c2)=N\NC(=O)NN)cc1 (stereo unspecified)?
EC50: > 389 µM; IC50: > 389 µM

Which outcome does the source give for COc1ccc(OC)c(Cc2c(OC)ccc(OC)c2O)c1O here?
Its outcome is “inactive”.

For CN1C(=O)C(C)(O)c2ccccc21 (stereo unspecified), which EC50 is on record?
Its EC50 is > 1410 µM.

And the IC50?
The IC50 was 550 µM.

How did the EC50 turn out when Cc1ccc(NC(=O)C2C(=O)N(c3ccc(C)cc3)C(=O)/C2=N\NC(N)=S)cc1 (stereo unspecified) was run?
Its EC50 is > 12.6 µM.

What about the IC50 of the same molecule?
Its IC50 is > 12.6 µM.

O=C(O/C(=C(/N=Nc1ccccc1)c1ccccc1)c1ccccc1)c1ccccc1 was tested. Which outcome did it give?
The outcome was “inactive”.

O=c1[nH]c(Br)nc2n[nH]nc12 was tested. Which EC50 did it give?
Its EC50 is > 200 µM.

What about the IC50 of the same molecule?
Its IC50 is 4.9 µM.

Which results are given for NC(=S)N=Nc1c(O)cc(Nc2ccc(Cl)cc2Cl)c2ccccc12?
EC50: > 138 µM; IC50: 97.7 µM

How did the EC50 turn out when COc1ccc(/C(=N/O)c2ccccc2-c2nc3ccccc3c(=O)n2-c2ccc(S(=O)(=O)Nc3ccccn3)cc2)cc1C was run?
The EC50 was > 100 µM.

What about the IC50 of the same molecule?
The IC50 was 63.1 µM.

How did the EC50 turn out when O=S(=O)(O)SCCCNCCCNCCCSS(=O)(=O)O was run?
Its EC50 is > 200 µM.

What about the IC50 of the same molecule?
Its IC50 is 13.8 µM.

O=S(=O)(O)c1ccc(N=Nc2ccc(S(=O)(=O)O)cc2)cc1 was tested. Which outcome did it give?
Its outcome is “inactive”.

CCOC(=O)C(CS)NC(=O)CCCCCCCC(=O)O (stereo unspecified) was tested. Which EC50 did it give?
Its EC50 is > 100 µM.

What about the IC50 of the same molecule?
Its IC50 is 79.4 µM.

With Cc1nc(Nc2ccccc2)sc1C(=O)CC(=O)C(=O)NC12CC3CC(CC(C3)C1)C2 as the molecule, how does the EC50 read?
The EC50 was > 81.3 µM.

What about the IC50 of the same molecule?
The IC50 was > 81.3 µM.

Which results are given for O=C1CC(c2ccsc2)NC(=O)N1CCCl (stereo unspecified)?
EC50: > 200 µM; IC50: > 200 µM

COc1c(N2CCCCC2)c2c(=O)c3ccccc3oc2c2c3ccccc3n(C)c12 was tested. Which EC50 did it give?
The EC50 was 170 µM.

What about the IC50 of the same molecule?
Its IC50 is 195 µM.
